Columns and labels:
[1] = biological target: T1, Thromboxane A2 receptor (Homo sapiens, UniProt P21731)
T1 sequence (P21731 whole entry): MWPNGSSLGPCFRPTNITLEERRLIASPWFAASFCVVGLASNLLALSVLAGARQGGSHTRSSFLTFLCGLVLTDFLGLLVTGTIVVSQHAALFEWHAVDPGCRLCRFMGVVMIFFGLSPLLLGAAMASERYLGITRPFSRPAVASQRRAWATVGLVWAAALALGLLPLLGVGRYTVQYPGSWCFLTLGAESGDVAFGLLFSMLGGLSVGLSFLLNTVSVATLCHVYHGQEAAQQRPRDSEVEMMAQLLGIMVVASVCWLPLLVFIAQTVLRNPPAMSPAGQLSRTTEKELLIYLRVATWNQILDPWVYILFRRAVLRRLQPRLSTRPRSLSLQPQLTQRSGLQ

[2] = biological target: D(3) dopamine receptor (Homo sapiens, UniProt P35462)
[3] = biological target: Acetylcholinesterase (Homo sapiens, UniProt P22303); format: functional
[4] = biological target: Voltage-gated inwardly rectifying potassium channel KCNH2 (Homo sapiens, UniProt Q12809); format: functional; conditions: read-out: AC50
[5] = biological target: Gamma-aminobutyric acid receptor subunit alpha-1/alpha-2/beta-2/gamma-2 (Homo sapiens, UniProt P14867+P18507+P47869+P47870); format: protein-complex assay
[6] = biological target: D(1A) dopamine receptor (Homo sapiens, UniProt P21728)
[7] = biological target: T2, Alpha-1A adrenergic receptor (Homo sapiens, UniProt P35348); format: functional, cell-based
T2 sequence (P35348 whole entry): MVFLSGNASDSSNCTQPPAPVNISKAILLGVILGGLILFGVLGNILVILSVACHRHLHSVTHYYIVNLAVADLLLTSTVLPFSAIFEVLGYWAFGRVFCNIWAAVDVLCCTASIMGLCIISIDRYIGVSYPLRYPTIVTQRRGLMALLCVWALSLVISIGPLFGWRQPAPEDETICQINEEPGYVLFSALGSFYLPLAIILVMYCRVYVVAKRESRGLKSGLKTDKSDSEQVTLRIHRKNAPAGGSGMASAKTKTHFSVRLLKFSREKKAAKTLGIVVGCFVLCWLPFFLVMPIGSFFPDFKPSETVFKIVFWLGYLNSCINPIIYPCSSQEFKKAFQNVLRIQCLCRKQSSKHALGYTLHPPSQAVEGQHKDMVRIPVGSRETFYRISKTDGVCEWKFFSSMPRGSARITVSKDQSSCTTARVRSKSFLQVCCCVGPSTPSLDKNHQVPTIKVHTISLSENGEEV

[8] = biological target: Histamine H3 receptor (Homo sapiens, UniProt Q9Y5N1)
[9] = biological target: T3, Alpha-2A adrenergic receptor (Homo sapiens, UniProt P08913)
T3 sequence (P08913 whole entry): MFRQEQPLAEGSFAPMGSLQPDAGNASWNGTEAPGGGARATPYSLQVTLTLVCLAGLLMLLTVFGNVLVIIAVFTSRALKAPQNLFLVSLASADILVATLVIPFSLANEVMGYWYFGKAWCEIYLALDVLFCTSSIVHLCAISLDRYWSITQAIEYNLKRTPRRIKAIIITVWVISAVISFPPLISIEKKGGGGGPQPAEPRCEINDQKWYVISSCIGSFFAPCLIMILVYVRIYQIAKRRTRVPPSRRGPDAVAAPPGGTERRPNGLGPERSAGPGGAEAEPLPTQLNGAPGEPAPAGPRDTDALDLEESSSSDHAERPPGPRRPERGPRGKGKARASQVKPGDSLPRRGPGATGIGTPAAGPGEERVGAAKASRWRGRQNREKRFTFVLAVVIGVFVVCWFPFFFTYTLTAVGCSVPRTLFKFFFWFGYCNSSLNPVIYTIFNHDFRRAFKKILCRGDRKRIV

[10] = biological target: T4, Muscarinic acetylcholine receptor M2 (Homo sapiens, UniProt P08172)
T4 sequence (P08172 whole entry): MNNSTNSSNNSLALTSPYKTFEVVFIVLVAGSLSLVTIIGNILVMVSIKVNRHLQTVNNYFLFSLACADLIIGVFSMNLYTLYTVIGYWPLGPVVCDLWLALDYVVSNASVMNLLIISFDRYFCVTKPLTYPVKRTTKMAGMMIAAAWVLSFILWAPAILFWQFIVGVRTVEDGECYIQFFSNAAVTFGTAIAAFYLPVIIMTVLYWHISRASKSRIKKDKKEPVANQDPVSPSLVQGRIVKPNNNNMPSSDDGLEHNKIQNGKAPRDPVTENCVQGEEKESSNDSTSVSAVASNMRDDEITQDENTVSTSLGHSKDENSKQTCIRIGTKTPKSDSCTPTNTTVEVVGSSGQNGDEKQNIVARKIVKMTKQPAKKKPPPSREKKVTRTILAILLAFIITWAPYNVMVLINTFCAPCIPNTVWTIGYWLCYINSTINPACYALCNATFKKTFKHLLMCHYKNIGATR

[11] = biological target: 5-hydroxytryptamine receptor 2B (Homo sapiens, UniProt P41595); format: functional, cell-based
[12] = biological target: T2, Alpha-1A adrenergic receptor; format: functional, cell-based; remark: listed apart in the source
[13] = biological target: T5, 5-hydroxytryptamine receptor 1A (Homo sapiens, UniProt P08908)
T5 sequence (P08908 whole entry): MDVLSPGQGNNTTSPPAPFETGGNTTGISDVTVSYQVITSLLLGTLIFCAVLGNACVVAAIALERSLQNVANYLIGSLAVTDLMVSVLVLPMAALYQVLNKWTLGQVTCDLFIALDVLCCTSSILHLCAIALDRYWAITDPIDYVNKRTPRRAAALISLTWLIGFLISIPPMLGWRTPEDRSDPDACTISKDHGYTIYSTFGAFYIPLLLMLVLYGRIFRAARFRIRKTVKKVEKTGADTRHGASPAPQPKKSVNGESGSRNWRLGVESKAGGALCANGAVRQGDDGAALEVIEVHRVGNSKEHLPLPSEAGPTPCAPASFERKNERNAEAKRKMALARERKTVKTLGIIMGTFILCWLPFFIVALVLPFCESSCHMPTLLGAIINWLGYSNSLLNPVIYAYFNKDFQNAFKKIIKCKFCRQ

[14] = biological target: T6, Amine oxidase [flavin-containing] A (Homo sapiens, UniProt P21397); format: functional
T6 sequence (P21397 whole entry): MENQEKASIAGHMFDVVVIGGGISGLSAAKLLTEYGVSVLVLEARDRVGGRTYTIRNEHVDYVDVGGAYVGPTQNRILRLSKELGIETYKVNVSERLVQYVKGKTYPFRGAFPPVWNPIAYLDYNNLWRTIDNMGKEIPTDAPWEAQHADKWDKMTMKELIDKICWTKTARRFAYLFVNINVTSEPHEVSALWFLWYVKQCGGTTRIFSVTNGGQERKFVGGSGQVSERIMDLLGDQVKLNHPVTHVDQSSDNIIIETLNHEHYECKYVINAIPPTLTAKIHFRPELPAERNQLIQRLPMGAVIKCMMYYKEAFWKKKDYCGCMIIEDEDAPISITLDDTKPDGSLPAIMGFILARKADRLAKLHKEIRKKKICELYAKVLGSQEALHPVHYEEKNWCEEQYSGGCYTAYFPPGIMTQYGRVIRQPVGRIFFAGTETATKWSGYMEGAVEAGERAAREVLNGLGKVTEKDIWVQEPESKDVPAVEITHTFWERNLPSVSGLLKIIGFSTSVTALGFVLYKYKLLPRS

[15] = biological target: Sodium-dependent dopamine transporter (Homo sapiens, UniProt Q01959)
[16] = biological target: Mu-type opioid receptor (Homo sapiens, UniProt P35372)
[17] = biological target: Sodium-dependent noradrenaline transporter (Homo sapiens, UniProt P23975)
[18] = biological target: T7, Adenosine receptor A3 (Homo sapiens, UniProt P0DMS8)
T7 sequence (P0DMS8 whole entry): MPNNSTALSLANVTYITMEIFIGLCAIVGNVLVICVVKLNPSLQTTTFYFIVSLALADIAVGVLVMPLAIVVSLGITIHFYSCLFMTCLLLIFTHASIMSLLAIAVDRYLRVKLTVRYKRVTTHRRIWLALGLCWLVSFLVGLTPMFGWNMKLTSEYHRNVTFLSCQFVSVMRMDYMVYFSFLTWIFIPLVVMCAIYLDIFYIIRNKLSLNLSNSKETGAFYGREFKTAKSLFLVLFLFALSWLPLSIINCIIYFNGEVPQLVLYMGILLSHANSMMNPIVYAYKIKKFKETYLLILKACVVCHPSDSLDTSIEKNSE
Also: assay procedure not described here.

Chain of Acetylcholinesterase (P22303 whole entry): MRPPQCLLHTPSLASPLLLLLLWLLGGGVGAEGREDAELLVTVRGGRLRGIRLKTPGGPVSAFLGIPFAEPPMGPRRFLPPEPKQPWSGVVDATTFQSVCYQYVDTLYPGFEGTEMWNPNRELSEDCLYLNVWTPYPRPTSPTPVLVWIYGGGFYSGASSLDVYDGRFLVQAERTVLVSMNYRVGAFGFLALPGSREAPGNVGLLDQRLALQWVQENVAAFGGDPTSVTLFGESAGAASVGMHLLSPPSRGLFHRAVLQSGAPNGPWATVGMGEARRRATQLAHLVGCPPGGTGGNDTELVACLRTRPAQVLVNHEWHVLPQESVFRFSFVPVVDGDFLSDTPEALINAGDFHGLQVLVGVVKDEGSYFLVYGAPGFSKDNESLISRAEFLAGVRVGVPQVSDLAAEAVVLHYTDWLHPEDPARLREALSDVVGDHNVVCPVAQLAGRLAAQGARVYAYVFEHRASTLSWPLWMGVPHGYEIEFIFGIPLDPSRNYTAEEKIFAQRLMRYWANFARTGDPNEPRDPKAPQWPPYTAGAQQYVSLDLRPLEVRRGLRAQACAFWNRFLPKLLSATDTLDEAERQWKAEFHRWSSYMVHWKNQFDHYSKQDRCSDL
Chain of D(3) dopamine receptor (P35462 whole entry): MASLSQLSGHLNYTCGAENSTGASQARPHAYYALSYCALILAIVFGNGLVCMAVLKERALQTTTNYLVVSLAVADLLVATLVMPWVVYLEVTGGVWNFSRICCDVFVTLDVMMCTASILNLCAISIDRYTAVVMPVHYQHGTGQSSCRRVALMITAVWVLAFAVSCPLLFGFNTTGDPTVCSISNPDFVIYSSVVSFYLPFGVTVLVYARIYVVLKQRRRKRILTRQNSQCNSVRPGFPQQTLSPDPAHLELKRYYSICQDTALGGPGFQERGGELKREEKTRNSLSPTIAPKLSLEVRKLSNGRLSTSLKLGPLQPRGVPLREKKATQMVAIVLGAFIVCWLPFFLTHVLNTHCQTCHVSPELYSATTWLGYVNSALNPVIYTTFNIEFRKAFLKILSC
Chain of Voltage-gated inwardly rectifying potassium channel KCNH2 (Q12809 whole entry): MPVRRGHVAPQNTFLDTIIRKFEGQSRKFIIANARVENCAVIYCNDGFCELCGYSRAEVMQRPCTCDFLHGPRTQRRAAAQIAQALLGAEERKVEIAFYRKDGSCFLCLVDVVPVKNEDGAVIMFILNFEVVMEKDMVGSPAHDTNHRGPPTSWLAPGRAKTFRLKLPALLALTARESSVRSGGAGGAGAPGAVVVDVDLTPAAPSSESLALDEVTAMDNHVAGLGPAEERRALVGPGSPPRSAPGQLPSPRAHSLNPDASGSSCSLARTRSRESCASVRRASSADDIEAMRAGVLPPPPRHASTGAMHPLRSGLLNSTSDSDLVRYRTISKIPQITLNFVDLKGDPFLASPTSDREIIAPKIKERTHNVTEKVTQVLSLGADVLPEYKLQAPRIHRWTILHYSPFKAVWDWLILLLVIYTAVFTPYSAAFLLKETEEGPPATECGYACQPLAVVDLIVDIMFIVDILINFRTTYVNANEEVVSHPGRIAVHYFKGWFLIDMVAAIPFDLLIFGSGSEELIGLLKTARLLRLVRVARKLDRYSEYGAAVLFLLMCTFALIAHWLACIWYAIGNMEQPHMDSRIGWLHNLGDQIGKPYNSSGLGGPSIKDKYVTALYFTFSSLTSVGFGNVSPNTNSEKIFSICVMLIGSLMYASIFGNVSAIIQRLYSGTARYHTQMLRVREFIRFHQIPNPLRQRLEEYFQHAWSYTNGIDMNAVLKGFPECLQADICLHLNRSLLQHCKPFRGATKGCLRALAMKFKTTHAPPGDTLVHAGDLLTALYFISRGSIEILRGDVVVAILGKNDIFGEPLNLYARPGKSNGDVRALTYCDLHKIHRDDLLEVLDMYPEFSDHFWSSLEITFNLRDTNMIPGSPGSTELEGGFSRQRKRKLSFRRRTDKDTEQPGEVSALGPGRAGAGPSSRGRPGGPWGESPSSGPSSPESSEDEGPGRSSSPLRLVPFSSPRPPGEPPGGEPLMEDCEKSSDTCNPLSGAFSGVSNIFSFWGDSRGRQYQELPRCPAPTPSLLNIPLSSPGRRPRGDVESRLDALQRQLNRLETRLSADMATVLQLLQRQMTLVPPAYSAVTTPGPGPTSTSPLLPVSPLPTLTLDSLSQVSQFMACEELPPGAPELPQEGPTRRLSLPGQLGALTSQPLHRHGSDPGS
Chain of Mu-type opioid receptor (P35372 whole entry): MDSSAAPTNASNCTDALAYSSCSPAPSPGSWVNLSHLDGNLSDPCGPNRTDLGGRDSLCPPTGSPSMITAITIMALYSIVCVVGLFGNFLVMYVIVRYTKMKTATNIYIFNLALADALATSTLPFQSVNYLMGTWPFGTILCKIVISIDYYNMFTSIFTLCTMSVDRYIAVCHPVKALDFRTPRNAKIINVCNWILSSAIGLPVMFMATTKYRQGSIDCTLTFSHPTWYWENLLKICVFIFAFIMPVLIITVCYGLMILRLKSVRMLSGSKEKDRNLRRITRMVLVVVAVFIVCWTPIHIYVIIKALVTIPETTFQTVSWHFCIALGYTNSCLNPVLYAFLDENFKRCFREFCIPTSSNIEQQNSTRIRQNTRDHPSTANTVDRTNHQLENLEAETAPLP
Chain of D(1A) dopamine receptor (P21728 whole entry): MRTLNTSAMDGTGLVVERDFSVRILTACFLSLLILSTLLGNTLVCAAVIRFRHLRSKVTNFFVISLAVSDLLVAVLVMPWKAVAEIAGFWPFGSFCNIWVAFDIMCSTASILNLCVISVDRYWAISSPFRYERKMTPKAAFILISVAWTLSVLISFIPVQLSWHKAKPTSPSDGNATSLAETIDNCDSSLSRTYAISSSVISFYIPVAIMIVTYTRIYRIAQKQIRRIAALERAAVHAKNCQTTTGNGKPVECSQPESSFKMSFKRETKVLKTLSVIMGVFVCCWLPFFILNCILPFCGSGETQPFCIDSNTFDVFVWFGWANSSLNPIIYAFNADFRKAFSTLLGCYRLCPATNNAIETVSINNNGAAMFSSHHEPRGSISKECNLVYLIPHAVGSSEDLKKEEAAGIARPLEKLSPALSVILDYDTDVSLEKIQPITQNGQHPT
Chain of Histamine H3 receptor (Q9Y5N1 whole entry): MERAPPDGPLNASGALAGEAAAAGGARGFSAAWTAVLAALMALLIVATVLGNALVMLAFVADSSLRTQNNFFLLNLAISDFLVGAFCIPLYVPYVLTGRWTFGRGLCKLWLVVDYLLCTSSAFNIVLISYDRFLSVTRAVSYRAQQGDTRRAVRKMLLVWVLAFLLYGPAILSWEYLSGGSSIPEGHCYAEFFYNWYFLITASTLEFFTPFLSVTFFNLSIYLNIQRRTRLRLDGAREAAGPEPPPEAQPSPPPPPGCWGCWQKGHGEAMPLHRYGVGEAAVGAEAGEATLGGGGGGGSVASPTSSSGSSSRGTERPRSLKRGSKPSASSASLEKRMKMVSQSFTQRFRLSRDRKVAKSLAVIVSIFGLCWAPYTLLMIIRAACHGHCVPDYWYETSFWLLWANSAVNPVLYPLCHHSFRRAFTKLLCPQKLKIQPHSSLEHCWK
Chain of Sodium-dependent dopamine transporter (Q01959 whole entry): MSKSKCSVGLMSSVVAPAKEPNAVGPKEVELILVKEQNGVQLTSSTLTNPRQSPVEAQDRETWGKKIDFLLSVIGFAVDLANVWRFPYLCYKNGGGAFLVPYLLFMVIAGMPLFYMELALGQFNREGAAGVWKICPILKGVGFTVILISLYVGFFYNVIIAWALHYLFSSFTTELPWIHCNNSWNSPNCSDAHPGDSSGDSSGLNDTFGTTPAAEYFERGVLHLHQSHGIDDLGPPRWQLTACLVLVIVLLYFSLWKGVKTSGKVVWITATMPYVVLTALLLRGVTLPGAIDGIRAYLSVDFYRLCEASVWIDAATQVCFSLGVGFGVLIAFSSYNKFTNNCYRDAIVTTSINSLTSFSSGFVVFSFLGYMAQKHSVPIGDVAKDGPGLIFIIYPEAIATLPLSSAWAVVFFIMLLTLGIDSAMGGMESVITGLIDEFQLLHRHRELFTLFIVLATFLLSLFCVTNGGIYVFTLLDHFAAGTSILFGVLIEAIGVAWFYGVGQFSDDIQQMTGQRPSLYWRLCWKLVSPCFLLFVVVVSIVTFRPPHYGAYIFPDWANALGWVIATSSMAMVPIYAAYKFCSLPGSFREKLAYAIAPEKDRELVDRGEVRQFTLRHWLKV
Chain of 5-hydroxytryptamine receptor 2B (P41595 whole entry): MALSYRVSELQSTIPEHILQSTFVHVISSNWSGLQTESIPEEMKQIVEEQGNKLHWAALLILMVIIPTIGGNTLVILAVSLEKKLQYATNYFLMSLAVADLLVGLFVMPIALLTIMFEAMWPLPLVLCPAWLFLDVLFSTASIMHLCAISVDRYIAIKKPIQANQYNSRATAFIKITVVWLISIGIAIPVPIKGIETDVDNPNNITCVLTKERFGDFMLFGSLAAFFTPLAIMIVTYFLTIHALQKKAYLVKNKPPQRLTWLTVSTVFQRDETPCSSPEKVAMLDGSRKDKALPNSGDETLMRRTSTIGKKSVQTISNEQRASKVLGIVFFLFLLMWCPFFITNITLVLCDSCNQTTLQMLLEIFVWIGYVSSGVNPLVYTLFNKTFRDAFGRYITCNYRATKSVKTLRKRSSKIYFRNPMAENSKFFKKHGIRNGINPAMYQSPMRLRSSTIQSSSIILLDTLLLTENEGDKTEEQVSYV

Compound CCCCC[C@H](O)/C=C/[C@H]1[C@H](O)CC(=O)[C@@H]1CCCCCCC(=O)O [ALPROSTADIL] has an AC50 [1] of over 10 µM.

For CN(C)CC/C=C1/c2ccccc2Sc2ccc(Cl)cc21 [CHLORPROTHIXENE], the AC50 [2] was 0.003 µM.

In the case of O=C(O)CN(CCN(CC(=O)O)CC(=O)O)CC(=O)O [EDETIC ACID], the AC50 [3] is reported as over 30 µM.

Work on COc1ccc2c3c1O[C@H]1C[C@@H](O)C=C[C@@]31CCN(C)C2 [GALANTAMINE] yielded an AC50 [4] of over 30 µM.

CC[N+](CC)(CC)CCOc1cccc(OCC[N+](CC)(CC)CC)c1OCC[N+](CC)(CC)CC [GALLAMINE] showed an AC50 [3] of over 30 µM and an AC50 [4] of 8.99 µM.

Oc1ccccc1 [PHENOL] was tested, and the AC50 [5] was over 30 µM, the AC50 [6] was over 30 µM and the AC50 [7] was over 30 µM. The AC50 [8] was over 30 µM, the AC50 [9] was over 30 µM and the AC50 [10] was over 30 µM. The AC50 [11] was over 30 µM, the AC50 [12] was over 30 µM and the AC50 [13] was over 30 µM. It also gave an AC50 [3] of over 30 µM, an AC50 [14] of over 30 µM and an AC50 [15] of over 30 µM. The AC50 [16] was over 30 µM, the AC50 [17] was over 30 µM and the AC50 [2] was over 30 µM.

CNC(=C[N+](=O)[O-])NCCSCc1ccc(CN(C)C)o1 [RANITIDINE] was tested, and the AC50 [18] was over 30 µM.

From ChEMBL document CHEMBL5291721, “A preclinical secondary pharmacology resource illuminates target-adverse drug reaction associations of marketed drugs” (Nat Commun, 2023)
